From US6541484B2 (dated 2003)
Where a name gives a salt, the structure may show the parent alone.

Question: For `CCn1ncnc1COc1nc2c(cnn2-c2ccccc2)c2ccccc12`, which melting point is on record?
Answer: Its melting point is 147 to 148 °C.

Question: For `Cn1ncnc1COc1nc2c(cnn2-c2ccccc2)c2ccccc12`, which melting point is on record?
Answer: Its melting point is 149 to 151 °C.

Question: Which melting point does the source give for `Cn1ncnc1COc1cc(N)c2cnn(-c3ccccc3)c2n1` here?
Answer: The melting point was 164 to 166 °C.

Question: With `CCn1ncnc1COc1nc2c(cnn2-c2ccccc2)cc1C(C)(C)C` (as salt: hydrochloride) as the compound, how does the melting point read?
Answer: Its melting point is 150 to 152 °C.

Question: For `Cn1ncnc1COc1nc2c(cnn2-c2ccccc2)cc1C(C)(C)C`, which melting point is on record?
Answer: The melting point was 143 to 145 °C.
